This is an account of results in patent US5459270A, “Azacyclic compounds, processes for their preparation and pharmaceutical compositions containing them” (Merck Sharp & Dohme Limited, priority 1991, dated 1995).

Values joined by “and” are separate entries in the source; they are usually repeats but may differ in a detail not shown here. Identical values can stand only once. Counter-ions that a name gives are not always drawn.

A word on the IC50: it is the concentration that inhibits the measured activity by half.

human neurokinin-1-receptor (NK1R), sequence (P25103 whole entry): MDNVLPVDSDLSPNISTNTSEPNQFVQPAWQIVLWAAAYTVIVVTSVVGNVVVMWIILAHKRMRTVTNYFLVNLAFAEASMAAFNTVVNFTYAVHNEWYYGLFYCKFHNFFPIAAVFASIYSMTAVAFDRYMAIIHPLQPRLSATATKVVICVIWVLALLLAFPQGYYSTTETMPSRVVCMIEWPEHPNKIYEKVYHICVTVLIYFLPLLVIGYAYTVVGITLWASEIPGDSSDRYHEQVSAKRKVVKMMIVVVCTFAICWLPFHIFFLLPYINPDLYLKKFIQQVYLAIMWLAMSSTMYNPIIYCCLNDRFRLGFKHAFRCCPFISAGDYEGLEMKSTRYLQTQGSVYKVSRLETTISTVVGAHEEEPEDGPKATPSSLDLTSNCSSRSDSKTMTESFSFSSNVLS

The first experiment concerns the target human neurokinin-1-receptor (NK1R) (Homo sapiens, UniProt P25103). Description: biochemical. As to conditions: 1 h, read-out: % @ 300 nM (in column IC50 @ NKIR). The class given is binding. The method, then:
To express the cloned human neurokinin-1-receptor (NK1R) transiently in COS, the cDNA for the human NK1R was cloned into the expression vector pCDM9 which was derived from pCDM8 (INVITROGEN) by inserting the ampicillin resistance gene (nucleotide 1973 to 2964 from BLUESCRIPT SK+ (trademark, […], La Jolla, Calif., USA)) into the Sac II site. Transfection of 20 ug of the plasmid DNA into 10 million COS cells was achieved by electroporation in 800 μl of transfection buffer (135 mM NaCl, 1.2 mM CaCl2, 1.2 mM MgCl2, 2.4 mM K2 HPO4, 0.6 mM KH2 PO4, 10 mM glucose, 10 mM N-2-hydroxyethyl-piperazine-N'-2-ethane sulphonic acid (HEPES) pH 7.4) at 260 V and 950 μF using the IBI GENEZAPPER (trademark IBI, New Haven, Conn., USA). The cells were incubated in 10% fetal calf serum, 2 mM glutamine, 100 U/ml penicillin-streptomycin, and 90% DMEM media (GIBCO, Grand Island, N.Y., USA) in 5% CO2 at 37° C. for three days before the binding assay.
To establish a stable cell line expressing cloned human NK1R, the cDNA was subcloned into the vector pRcCMV (INVITROGEN). Transfection of 20 μg of the plasmid DNA into CHO cells was achieved by electroporation in 800 μl of transfection buffer supplemented with 0.625 mg/ml Herring sperm DNA at 300 V and 950 μF using the IBI GENEZAPPER (IBI). The transfected cells were incubated in CHO media [10% fetal calf serum, 100 U/ml penicillin-streptomycin, 2 mM glutamine, 1/500 hypoxanthine-thymidine (ATCC), 90% IMDM media (JRH BIOSCIENCES, Lenexa, Kans., USA), 0.7 mg/ml G418 (GIBCO)] in 5% CO2 at 37° C. until colonies were visible. Each colony was separated and propagated. The cell clone with the highest number of human NK1R was selected for subsequent applications such as drug screening.
The binding assay of human NK1R expressed in either COS or CHO cells is based on the use of ^125 I-substance P (^125 I-SP, from DU PONT, Boston, Mass.) as a radioactively labeled ligand which competes with unlabeled substance P or any other ligand for binding to the human NK1R. […] The tubes were incubated at 4° C. or at room temperature for 1 hour with gentle shaking. The bound radioactivity was separated from unbound radioactivity by GF/C filter (BRANDEL, Gaithersburg, Md.) which was pre-wetted with 0.1% polyethylenimine. The filter was washed with 3 ml of wash buffer (50 mM Tris pH 7.5, 5 mM MnCl2, 50 mM NaCl) three times and its radioactivity was determined by gamma counter.
On to `COc1ccc([N+](=O)[O-])cc1CO[C@H]1CCCN[C@H]1c1ccccc1` (relative stereo) [Example 45, cis-3-((2-Methoxy-5-nitrophenyl)methyloxy)-2-phenylpiperidine hydrochloride salt], for which the inhibition at 0.3 µM came to 42%.
On the same count and under the same terms, in the case of `N#Cc1cccc(CO[C@H]2CCCN[C@H]2c2ccccc2)c1` (relative stereo) [Example 53, cis-3((3-cyanophenyl)methyloxy)-2-phenylpiperidine hydrochloride salt] it was 40%.

The same experiment, now with this note: 1 h, read-out: % @ 300 nM (in column IC50 @ NKIR); 300 nM; human NK1R in COS or CHO cells, 125I-substance P.
Take `FC(F)(F)c1cc(CO[C@H]2CCCN[C@H]2c2ccccn2)cc(C(F)(F)F)c1` (relative stereo) [Example 26, cis-3-((3,5-Bis(trifluoromethyl)phenyl)methyloxy)-2-pyridyl piperidine dihydrochloride salt]: the inhibition at 0.3 µM worked out at 41%.
As to `FC(F)(F)c1cc(CO[C@H]2CCCN(Cc3cc(C(F)(F)F)cc(C(F)(F)F)c3)[C@H]2c2ccccc2)cc(C(F)(F)F)c1` (relative stereo) [Example 42], the inhibition at 0.3 µM was 45%.

Still in this experiment, the particulars now being: 1 h, read-out: % @ 1 μM (in column IC50 @ NKIR).
As to `c1ccc(CO[C@H]2CCCN[C@H]2c2ccccc2)cc1` (relative stereo) [Example 34, cis-2-Phenyl-3-(phenylmethyloxy)piperidine oxalate salt], the inhibition at 1 µM was 53%.
Same read-out and setting: as for `Cc1cc(C)cc(CO[C@H]2CN(C)[C@H]2c2ccccc2)c1` (relative stereo) [Example 51, cis-3-((3,5-Dimethylphenyl)methyloxy)-1-methyl-2-phenyl azetidine oxalate salt], the figure is 40%.

The experiment is the same for the next values; noted with them: 1 h, read-out: % @ 1 μM (in column IC50 @ NKIR); 1 μM; human NK1R in COS or CHO cells, 125I-substance P.
Take `Cc1cc(C)cc(CO[C@@H]2CCCN[C@H]2c2ccccc2)c1` (relative stereo) [Example 12, trans-((3.5-Dimethylphenyl)methyloxy)-2-phenyl piperidine hydrochloride salt]: the inhibition at 1 µM amounted to 46%.

Still in this experiment, the particulars now being: displacement of 125I-substance P; human NK1R in COS or CHO cells; read-out: IC50 @ NKIR.
For `Cc1cc(C)cc(CO[C@H]2CCN(C)[C@H]2C(c2ccccc2)c2ccccc2)c1` (relative stereo) [Example 1, cis 2-(Diphenylmethyl)-3-(3,5-dimethylbenzyloxy)-1-methylpyrrolidine], the concentration for half-maximal inhibition (IC50) turned out to be 14 nM.
On to `Cc1cc(C)cc(CO[C@H]2CCCN[C@H]2c2ccccc2)c1` (relative stereo) [Example 2, cis-3-((3,5-Dimethylphenyl)methyloxy)-2-phenylpiperidine hydrochloride salt], for which the IC50 was less than 3 nM.
Still for that read-out and setting: as for `FC(F)(F)c1cc(CO[C@H]2CCCN[C@H]2c2ccccc2)cc(C(F)(F)F)c1` (relative stereo) [Example 4, cis-3-((3,5-Bis(trifluoromethyl)phenyl)methyloxy)-2-phenylpiperidine hydrochloride salt], the figure is 2 nM and 1.4 nM; as for `FC(F)(F)c1cc(CO[C@@H]2CCCN[C@H]2c2ccccc2)cc(C(F)(F)F)c1` (relative stereo) [Example 13, trans-3-((3,5-Bis(trifluoromethyl)phenyl)methyloxy)-2-phenyl piperidine hydrochloride salt], 300 nM.
In the case of `FC(F)(F)c1cc(CO[C@H]2CCCN[C@H]2c2ccccc2Cl)cc(C(F)(F)F)c1` (relative stereo) [Example 21, cis-3-((3,5-Bis(trifluoromethyl)phenyl)methyloxy)-2-(2-chlorophenyl)piperidine], the half-inhibitory concentration (IC50) is 40 nM.
As to `FC(F)(F)c1cc(CO[C@H]2CCCN[C@H]2c2cccc(Cl)c2)cc(C(F)(F)F)c1` (relative stereo) [Example 22, cis-3-((3,5-Bis(trifluoromethyl)phenyl)methyloxy)-2-(3-chlorophenyl)piperidine hydrochloride salt], the half-inhibitory concentration (IC50) is 5 nM.
Turning to `FC(F)(F)c1cc(CO[C@H]2CCCN[C@H]2c2ccc(Cl)cc2)cc(C(F)(F)F)c1` (relative stereo) [Example 23, cis-3-((3,5-Bis(trifluoromethyl)phenyl)methyloxy)-2-(4-chlorophenyl)piperidine hydrochloride salt], the half-maximal inhibitory concentration (IC50) was determined as 35 nM.
As for `Cc1ccc([C@@H]2NCCC[C@@H]2OCc2cc(C(F)(F)F)cc(C(F)(F)F)c2)cc1` (relative stereo) [Example 24, cis-3-(3,5,-Bis(trifluoromethyl)phenyl)methyloxy)-2-(4-methylphenyl)piperidine hydrochloride salt], the IC50 stood at 15 nM.
On the same count and under the same terms, as for `FC(F)(F)c1cc(CO[C@H]2CCCN[C@H]2c2cccs2)cc(C(F)(F)F)c1` (relative stereo) [Example 25, cis-3-((3,5-Bis(trifluoromethyl)phenyl)methyloxy)-2-thienyl piperidine hydrochloride salt], the figure is 70 nM.
The same measure, in the same setting: in the case of `COc1ccc(CN2C(=O)CC[C@H](OCc3cc(C(F)(F)F)cc(C(F)(F)F)c3)[C@@H]2c2ccccc2)cc1` (relative stereo) [Example 27, cis-3-((3,5-Bis(trifluoromethyl)phenyl)methyloxy)-6-keto1-(4-methoxybenzyl)-2-phenyl piperidine] it was 160 nM; in that of `O=C1CC[C@H](OCc2cc(C(F)(F)F)cc(C(F)(F)F)c2)[C@H](c2ccccc2)N1` (relative stereo) [Example 28, cis-3-((3,5-Bis(trifluoromethyl)phenyl)methyloxy)-6-keto-2-phenyl piperidine], 15 nM.
Same read-out and setting: as for `COC(=O)CCN1CCC[C@H](OCc2cc(C(F)(F)F)cc(C(F)(F)F)c2)[C@@H]1c1ccccc1` (relative stereo) [Example 29, cis-3-((3,5-Bis(trifluoromethyl)phenyl)methyloxy)-1-(2-carbomethoxy)ethyl-2-phenylpiperidine], the figure is 40 nM.
Turning to `COC(=O)CCCN1CCC[C@H](OCc2cc(C(F)(F)F)cc(C(F)(F)F)c2)[C@@H]1c1ccccc1` (relative stereo) [Example 31, cis-3-((3,5Bis(trifluoromethyl)phenyl)methyloxy)-1-(3-carbomethoxy)propyl-2-phenylpiperidine], the concentration for half-maximal inhibition (IC50) came out at 100 nM.
Take `CC(C)(C)c1cc(CO[C@H]2CCCN[C@H]2c2ccccc2)cc(C(C)(C)C)c1` (relative stereo) [Example 35, cis-3-((3,5.-Di-t-butylphenyl)methyloxy)-2-phenylpiperidine oxalate salt]: the IC50 was found to be 100 nM.
Turning to `NC(=O)C(=O)N1CCC[C@H](OCc2cc(C(F)(F)F)cc(C(F)(F)F)c2)[C@@H]1c1ccccc1` (relative stereo) [Example 38], the 50% inhibitory concentration (IC50) amounted to 150 nM.
With `NC(CN1CCC[C@H](OCc2cc(C(F)(F)F)cc(C(F)(F)F)c2)[C@@H]1c1ccccc1)=NO` (relative stereo) [Example 39], the concentration for half-maximal inhibition (IC50) was 0.9 nM.
The same measure, in the same setting: in the case of `N#CCN1CCC[C@H](OCc2cc(C(F)(F)F)cc(C(F)(F)F)c2)[C@@H]1c1ccccc1` (relative stereo) [Example 40, cis-3 ((3,5Bis(trifluoromethyl)phenyl)methyloxy)-1-cyanomethyl-2-phenylpiperidinium hydrochloride] it was 15 nM; in that of `Clc1cc(Cl)cc(CO[C@H]2CCCN[C@H]2c2ccccc2)c1` (relative stereo) [Example 47, cis-3-((3,5-Dichlorophenyl)methyloxy)-2-phenylpiperidine hydrochloride salt], 2 nM; in that of `COC(=O)C(C)N1CCCC(OCc2cc(C(F)(F)F)cc(C(F)(F)F)c2)C1c1ccccc1` (single isomer, unassigned) [Example 18], 0.6 nM.
Same read-out and setting: in the case of `CC(C(N)=O)N1CCC[C@H](OCc2cc(C(F)(F)F)cc(C(F)(F)F)c2)[C@@H]1c1ccccc1` (single isomer, unassigned) [Example 19, hydrochloride] it was 0.9 nM; in that of `CCN(CC)C(=O)CN1CCCC(OCc2cc(C(F)(F)F)cc(C(F)(F)F)c2)C1c1ccccc1` (single isomer, unassigned) [Example 43, cis-3-((3,5-Bis(trifluoromethyl)phenyl)methyloxy-1-(N,N-diethylcarboxamido)methyl-2-phenylpiperidinium hydrochloride], 1.4 nM.
